# Measurements from patent publication US20150072943A1, “MIXTURE OF POLAR G[…] USE IN THE TREATMENT OF PAIN AND COPD” (SANOFI, priority 2012, published 2015).
# Columns and labels:
# [1] = tested on: release of TNFalpha induced by E Coli LPS in mouse bronchus parenchyma tissue culture; assay: LPS-induced TNFalpha release in mouse bronchus parenchyma tissue culture; format: cell-based
# Description: The animals (BALB/c male mice, 20-22 g body weight) were sacrificed by cervical dislocation. The thoracic cage was opened cutting the ribs. Clamping the heart with surgical tweezers, lungs and heart were dissected from the thoracic cavity using surgical scissors and putted in cold Krebs solution ([…]: NaCl 118.4, KCl 4.7, CaCl2 2.5, KH2PO4 1.2, NaHCO3 25, glucose 11.7). Large airways and visible blood vessels were dissected. The lungs were divided in fragments of 30 mg (˜5 pieces/mouse) and finely chopped (six pieces of ˜2 mm3 each fragment) using a scalpel. Six explants (total weight 30 mg) were incubated per well (2.0 cm2) of a 24 well plate with 1 ml of RPMI-1640 medium (RPMI-1640+antibiotic antimycotic solution 100x, Sigma-Aldrich) at 37° C. in 5% carbon dioxide/air for 16 hours. Then the medium was replaced with fresh medium and the tissue was treated for 1 hour with compound. After one hour, the tissue was stimulated with 100 ng/ml LPS E. Coli 055:B5 (Sigma-Aldrich). 4 hour after LPS stimulation, supernatant was harvested and stored at −80° C. until ELISA analysis. Three of six tissue explants were fixed in 10% formalin buffer for histological/immunohistochemical analysis. The other three tissue explants were put in RNA-later buffer overnight and then stored at −80° C. […]
# [2] = tested on: release of TNFalpha induced by E. Coli-LPS in human bronchus parenchyma tissue culture; assay: LPS-induced TNFalpha release in human bronchus parenchyma tissue culture; format: cell-based
# Description: Human parenchymal lung tissue was obtained from patients undergoing resection for carcinoma at San Gerardo Hospital, Monza, Italy. Patients had not received radiotherapy or chronic treatment with steroids, opioids or chemotherapy. All specimens of parenchymal tissue were obtained from sites distant from the tumour. The study was approved by the institutional ethics committee of San Gerardo hospital Monza Italy and all volunteers gave informed consent. Resected lung tissue was dissected free of tumour, large airways, pleura and visible blood vessels and finely chopped using dissecting scissors, into 2 mm fragments during several washes with Kreb's buffer (([…]: NaCl 118.4, KCl 4.7, CaCl2 2.5, KH2PO4 1.2, NaHCO3 25, glucose 11.7). Six explants (total weight approx. 30 mg) were incubated in culture bioreactor (Synthecon/NASA USA) with RPMI-1640 medium containing 1% penicillin, 1% streptomycin, and 1% gentamycin at 37° C. in 5% carbon dioxide/air for 16 hours. Tissue was then either stimulated with 100 ng/ml LPS (Sigma-Aldrich) or maintained in cell culture media alone for 4 hours. For neutralization of TNF, tissue was incubated with 0.01, 0.1, or 1 μM of VB3323 for 1 hr prior to stimulation with 100 ng/ml LPS. […] The levels of TNFalpha in the supernatant were measured by enzyme-linked immunosorbent assay (ELISA) and the concentration corrected for tissue weight. […]
structure (smiles),measurement,setting,value
C[C@@H]1C[C@H]2[C@@H]3CCC4=CC(=O)C=C[C@]4(C)[C@@]3(F)[C@@H](O)C[C@]2(C)[C@@]1(O)C(=O)CO [Dexamethasone],inhibition at 1 µM,[1],67%
same,inhibition at 1 µM,[2],69%
